Laboratory results from patent US8906866B2, “Antibiotic compositions for the treatment of gram negative infections” (priority 2010, dated 2014).
Where a SMILES comes first, the peptide text is derived from it. Bridges are numbered along the chain shown (N, C = ends). [ ]: non-standard residue; d: D form. The star is where a group is joined. ξ: configuration not given here. Octanoyl(6-Me) = CCC(C)CCCCC(=O)*; Thr(3ξ) = CC(O)[C@H](N)C(=O)O; Dab = NCC[C@H](N)C(=O)O; ξDab = NCCC(N)C(=O)O

Assays:
E. coli 1527 = assay: MIC against the primary screening panel (broth microdilution); assay type: cell-based, Escherichia coli; design: key: A: a MIC value measurement that is the same as that observed for polymyxin B; a MIC value measured that is lower than the comparable value observed for polymxin B; a MIC value measured that is higher than the comparable value observed for polymyxin B; settings: relative to polymyxin B
Procedure: (§1) Antibacterial potency can be assessed by broth microdilution according to CLSI guidelines, plates can be incubated at 37° C., and aeration (rotation at 200 rpm) can be employed. In some assays, surfactant (Survanta, Abbott Laboratories) can be added to give a final concentration of 1, 10 and 40% in caMHB. Native polymyxin A, polymyxin B and the comparator compound of Formula II (polymyxin B decapeptide with an o-chlorophenyl urea tail) were included for comparison.

K. pneumoniae 933 = assay: as above; assay type: cell-based, Klebsiella pneumoniae; design: key: A: a MIC value measurement that is the same as that observed for polymyxin B; a MIC value measured that is lower than the comparable value observed for polymxin B; a MIC value measured that is higher than the comparable value observed for polymyxin B; settings: relative to polymyxin B
Procedure: as §1

P. aeruginosa 44 [1] = assay: as above; assay type: cell-based, Pseudomonas aeruginosa; design: key: A: a MIC value measurement that is the same as that observed for polymyxin B; a MIC value measured that is lower than the comparable value observed for polymxin B; a MIC value measured that is higher than the comparable value observed for polymyxin B; settings: relative to polymyxin B
Procedure: as §1

A. baumannii 1570 = assay: as above; assay type: cell-based, Acinetobacter baumannii; design: key: A: a MIC value measurement that is the same as that observed for polymyxin B; a MIC value measured that is lower than the comparable value observed for polymxin B; a MIC value measured that is higher than the comparable value observed for polymyxin B; settings: relative to polymyxin B
Procedure: as §1

E. coli [2] = assay: MIC50/90 against small panels (n = 35); assay type: cell-based, Escherichia coli; design: key: A: a MIC value measurement that is the same as that observed for polymyxin B; a MIC value measured that is lower than the comparable value observed for polymxin B; a MIC value measured that is higher than the comparable value observed for polymyxin B; settings: small panel n = 35, relative to polymyxin B
Procedure: as §1

K. pneumoniae = assay: MIC50/90 against small panels (n = 35); assay type: cell-based, Klebsiella pneumoniae; design: key: A: a MIC value measurement that is the same as that observed for polymyxin B; a MIC value measured that is lower than the comparable value observed for polymxin B; a MIC value measured that is higher than the comparable value observed for polymyxin B; settings: small panel n = 35, relative to polymyxin B
Procedure: as §1

P. aeruginosa = assay: MIC50/90 against small panels (n = 35); assay type: cell-based, Pseudomonas aeruginosa; design: key: A: a MIC value measurement that is the same as that observed for polymyxin B; a MIC value measured that is lower than the comparable value observed for polymxin B; a MIC value measured that is higher than the comparable value observed for polymyxin B; settings: small panel n = 35, relative to polymyxin B
Procedure: as §1

A. baumannii = assay: MIC50/90 against small panels (n = 35); assay type: cell-based, Acinetobacter baumannii; design: key: A: a MIC value measurement that is the same as that observed for polymyxin B; a MIC value measured that is lower than the comparable value observed for polymxin B; a MIC value measured that is higher than the comparable value observed for polymyxin B; settings: small panel n = 35, relative to polymyxin B
Procedure: as §1

P. aeruginosa #44 [3] = assay: MICs for P. aeruginosa #44 in the presence of surfactant; assay type: cell-based, Pseudomonas aeruginosa
Procedure: as §1

P. aeru = assay: MIC50 and MIC90, CLSI broth microdilution, panel of Gram negative strains; assay type: cell-based, Pseudomonas aeruginosa; design: key: A: a measured MIC value equal to that of polymyxin B; a measured MIC value less than the corresponding MIC value measured for polymyxin B; a measured MIC value greater than the corresponding MIC value measured for polymyxin B; settings: relative to polymyxin B; some strains multi-drug resistant
Procedure: (§2) MIC testing can be performed according to Clinical and Laboratory Standards Institute (CLSI) M7-A7 (2006) broth microdilution methods. Unless otherwise indicated, MIC values are provided in units of micrograms per milliliter.
(§3) One day prior to testing, individual colonies were isolated by streaking onto rich, non-selective Tryptic Soy agar with 5% lysed sheeps blood (TSAB) with incubation at 35-37° C. for 18-24 hours.
(§4) Cultures were prepared by touching 3-5 colonies into 3 mL of cation-adjusted Mueller Hinton Broth (caMHB) in a 14-mL tube (caMHB was prepared and sterilized according to manufacturer's specifications).
(§5) OD600 of growing cultures was measured and adjusted to approximately 10^5 colony forming units per mL (CFU/mL) in caMHB for MIC inoculation (approximately OD600 0.001).
(§6) Diluted cultures were used to inoculate 50 μL per well in broth microdilution assays (final volume 100 μl per well; compounds were prepared in two-fold dilutions).
(§7) Plates were incubated 16-20 hours at 37° C., with shaking at 200 rpm.
(§8) OD600 was determined for all wells. Growth was defined as OD600>0.1. MICs were defined as the lowest concentration producing no visible turbidity (OD600<0.1).

E. coli [4] = assay: as above; assay type: cell-based, Escherichia coli; design: key: A: a measured MIC value equal to that of polymyxin B; a measured MIC value less than the corresponding MIC value measured for polymyxin B; a measured MIC value greater than the corresponding MIC value measured for polymyxin B; settings: relative to polymyxin B; some strains multi-drug resistant
Procedure: as §2, §3, §4, §5, §6, §7, §8

K. pneu = assay: as above; assay type: cell-based, Klebsiella pneumoniae; design: key: A: a measured MIC value equal to that of polymyxin B; a measured MIC value less than the corresponding MIC value measured for polymyxin B; a measured MIC value greater than the corresponding MIC value measured for polymyxin B; settings: relative to polymyxin B; some strains multi-drug resistant
Procedure: as §2, §3, §4, §5, §6, §7, §8

A. baum = assay: as above; assay type: cell-based, Acinetobacter baumannii; design: key: A: a measured MIC value equal to that of polymyxin B; a measured MIC value less than the corresponding MIC value measured for polymyxin B; a measured MIC value greater than the corresponding MIC value measured for polymyxin B; settings: relative to polymyxin B; some strains multi-drug resistant
Procedure: as §2, §3, §4, §5, §6, §7, §8

P. aeruginosa #44 [5] = assay: MIC against P. aeruginosa #44 in polystyrene plate; assay type: cell-based, Pseudomonas aeruginosa; settings: range of repeated tests
Procedure: P. aeruginosa #44 were grown in cation adjusted Mueller Hinton Broth (caMHB) (catalog#B12322; Fisher Scientific, Pittsburgh, Pa.) at 37° C. MIC testing was performed according to Clinical and Laboratory Standards Institute [CLSI, formerly National Committee for Clinical Laboratory Standards (NCCLS), Wayne, Pa.] guidelines for broth microdilution. […]

P. aeruginosa 44 [6] = assay: Neutropenic mouse lung infection model; assay type: in vivo; settings: for ED−3log10: neutropenic mouse lung, P. aeruginosa 44, SC, BID×1 d, cfu 24 hours post-infection
Procedure: Compound of Formula (Ia) was tested in a murine thigh model. For the thigh model, female CD-1 mice were rendered neutropenic by IP injection on days −4 and −1 with 150 and 100 mg/kg cyclophosphamide, respectively. On day 0 mice were infected with 1×10^7 colony-forming units (cfu) of A. baumannii 1570 in one thigh muscle, and then administered compound SC in a dose ranging from 2 to 12 mg/kg at 1 and 6 hours post-infection.
The mouse lung model was run in the same manner as the thigh infection model, except that mice were infected IN with 1×10^7 cfu of P. aeruginosa 44 on day 0. Doses administered in the lung study ranged from 8 to 20 mg/kg. The ED−3log10 was based on cfu determination from the lung tissue 24 hours post-infection.

CCC(C)CCCCC(=O)N[C@@H](CCN)C(=O)N[C@H](C(=O)N[C@@H](CCN)C(=O)NC1CCNC(=O)[C@H](C(C)O)NC(=O)[C@H](CCN)NC(=O)C(CCN)NC(=O)[C@H](CC(C)C)NC(=O)[C@@H](Cc2ccccc2)NC(=O)[C@H](CCN)NC1=O)C(C)O (stereo partly shown) [Polymyxin B] ({Octanoyl(6-Me)}-[Dab][Thr(3ξ)][Dab][ξDab][Dab][dF]L[ξDab][Dab][Thr(3ξ)]; lactam 4-C)
MIC E. coli 1527 (E. coli 1527): A | MIC K. pneumoniae 933 (K. pneumoniae 933): A | MIC P. aeruginosa 44 (P. aeruginosa 44 [1]): A | MIC A. baumannii 1570 (A. baumannii 1570): A | E. coli MIC50 (E. coli [2]): A | E. coli MIC90 (E. coli [2]): A | K. pneumoniae MIC50 (K. pneumoniae): A | K. pneumoniae MIC90 (K. pneumoniae): A | P. aeruginosa MIC50 (P. aeruginosa): A | P. aeruginosa MIC90 (P. aeruginosa): A | A. baumannii MIC50 (A. baumannii): A | A. baumannii MIC90 (A. baumannii): A | MIC P. aeruginosa #44, 0% surfactant (P. aeruginosa #44 [3]; 0% surfactant): 0.06 micrograms/ml | MIC P. aeruginosa #44, 10% surfactant (P. aeruginosa #44 [3]; 10% surfactant): 8 micrograms/ml | MIC P. aeruginosa #44, 40% surfactant (P. aeruginosa #44 [3]; 40% surfactant): >32 micrograms/ml | P. aeru MIC 50 (P. aeru): A | P. aeru MIC 90 (P. aeru): A | E. coli MIC50 (E. coli [4]): A | E. coli MIC90 (E. coli [4]): A | K. pneu MIC 50 (K. pneu): A | K. pneu MIC 90 (K. pneu): A | A. baum MIC 50 (A. baum): A | A. baum MIC 90 (A. baum): A | MIC against P. aeruginosa #44 In polystyrene plate (P. aeruginosa #44 [5]): 1-2 micrograms/ml | Lungs cleared within one log10 of limit of detection (P. aeruginosa 44 [6]; 8 through 20 mg/kg dose levels): not observed | ED−3log10 (P. aeruginosa 44 [6]): > 20 mg/kg | ED−3log10 (P. aeruginosa 44 [6]; listed as PMB): 20.6 mg/kg

Colistin
MIC against P. aeruginosa #44 In polystyrene plate (P. aeruginosa #44 [5]): 2-4 micrograms/ml
